For one experiment, the system named is CTGF gene expression. In words: CTGF QPCR assay for inhibition of basal and TGFβ2-induced CTGF gene expression in cultured human TM cells. Type of experiment: cell-based. The following applies: for inhibition of TGFβ2-induced CTGF gene expression (mRNA levels): TGFβ2-stimulated; for inhibition of TGFβ2-induced CTGF gene expression (mRNA levels) / inhibition of basal CTGF gene expression (mRNA levels): cultured human normal or glaucomatous TM cells, QPCR; for inhibitory activity on CTGF expression: human TM cells, basal or TGFβ2-induced not specified. From the text:
FIG. 3. Effect of GSK-3 inhibition on CTGF gene expression in glaucomatous TM cells.
FIG. 4. Effect of CDK2 inhibition on CTGF gene expression in glaucomatous TM cells. To determine the effects of CDK inhibition on CTGF gene expression, we measured the effects of the known CDK2 inhibitor GW-8510 (Davis, et al. 2001) on both basal and TGFβ2-stimulated CTGF mRNA expression in a glaucomatous TM cell line (SGTM2697) using QPCR analysis.
The inventors have tested several different compound classes in a CTGF QPCR assay for inhibition of basal and TGFβ2-induced CTGF gene expression in cultured human normal or glaucomatous TM cells. Small molecule inhibitors were targeted at the inhibition of GSK-3, CDK, NAALADase, Protein Kinase C, MEK, p38MAPK, ROCK, VEGF, geranylgeranyl transferase and AGE. Small molecule agonists of PPAR, 5-HT, and P2X7 were also tested for activity. Compounds which target extracellular signal-regulated kinase 1 or 2 (ERK1 or ERK2) may also play a role in basal or TGFβ2-induced CTGF gene expression.
Total RNA was isolated from TM cells using Trizol® reagent according to the manufacturer's instructions (Life Technologies). First strand cDNA was generated from 1 ug of total RNA using random hexamers and TaqMan® Reverse Transcription reagents according to the manufacturer's instructions (PE Biosystems, Foster City, Calif.). The 100 ul reaction was subsequently diluted 20-fold to achieve an effective cDNA concentration of 0.5 ng/ul.
Differential expression of CTGF was verified by quantitative real-time RT-PCR (QPCR) using an ABI Prism® 7700 Sequence Detection System (Applied Biosystems). essentially as described (Shepard et al., IOVS 2001, 42:3173). Primers for CTGF amplification were designed using Primer Express software (Applied Biosystems) and anneal to adjacent exons of Genbank accession # NM_001901.1 ([…], nts 1667-1689 and […], nts 1723-1742) and generate a 76-bp amplicon. Amplification of CTGF was normalized to 18S ribosomal RNA expression using primers designed to the 18S rRNA gene (GenBank accession #X03205 […], nts 1680-1700 and […], nts 1730-1749) which generates a 69-bp amplicon. The SYBR® Green I double-stranded DNA binding dye chemistry (Applied Biosystems) was used to amplify CTGF or 18S cDNA. Specificity of the CTGF and 18S primer pairs was assessed from the PCR product by a combination of DNA sequencing, agarose gel analysis and dissociation curve analysis using the ABI Prism 770 SDS Dissociation Curve software (Applied Biosystems). CTGF or 18S rRNA reactions consisted of 1×SYBR Green PCR Master Mix (Applied Biosystems), 50 nM primer concentrations and 2.5 ng cDNA in a final volume of 50 ul. Thermal cycling conditions consisted of 50° C., 2 min, 95° C. 10 min followed by 40 cycles at 95° C., 15 sec, 60° C., 1 min. Quantification of relative RNA concentrations was done using the relative standard curve method as described in PE Biosystems User Bulletin #2 (http://docs.appliedbiosystems.com/pebiodocs/04303859.pdf). Data analysis was performed with SDS software version 1.9.1 (Applied Biosystems) and MS Excel 97 (Microsoft). Plasmid DNA containing target sequence for CTGF or 18S was used for generating the standard curve. QPCR data are presented as mean±SD.

In a further experiment the target is CDK1 (Homo sapiens, UniProt P06493). The following applies: cited from earlier work.
In a further experiment the target is CDK4 (Homo sapiens, UniProt P11802). The following applies: cited from earlier work.

We go through eight molecules from patent US7351407B2, “Agents which regulate, inhibit, or modulate the activity and/or expression of connective tissue growth factor (CTGF) as a unique means to both lower intraocular pressure and treat glaucomatous retinopathies/optic neuropathies” (Alcon, Inc., priority 2002, dated 2008).

SMILES strings stand for the structures.

CDK4, sequence (P11802 whole entry, species assumed): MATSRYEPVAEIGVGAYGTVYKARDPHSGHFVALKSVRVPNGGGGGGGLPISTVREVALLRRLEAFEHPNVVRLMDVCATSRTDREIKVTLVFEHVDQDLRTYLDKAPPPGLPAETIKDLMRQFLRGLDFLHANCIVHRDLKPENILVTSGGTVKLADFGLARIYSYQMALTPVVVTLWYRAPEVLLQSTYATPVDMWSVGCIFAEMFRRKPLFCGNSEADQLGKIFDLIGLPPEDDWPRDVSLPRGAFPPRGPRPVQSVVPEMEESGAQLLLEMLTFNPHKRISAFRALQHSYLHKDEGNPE
CDK4, sequence (P24385 whole entry partner, species assumed): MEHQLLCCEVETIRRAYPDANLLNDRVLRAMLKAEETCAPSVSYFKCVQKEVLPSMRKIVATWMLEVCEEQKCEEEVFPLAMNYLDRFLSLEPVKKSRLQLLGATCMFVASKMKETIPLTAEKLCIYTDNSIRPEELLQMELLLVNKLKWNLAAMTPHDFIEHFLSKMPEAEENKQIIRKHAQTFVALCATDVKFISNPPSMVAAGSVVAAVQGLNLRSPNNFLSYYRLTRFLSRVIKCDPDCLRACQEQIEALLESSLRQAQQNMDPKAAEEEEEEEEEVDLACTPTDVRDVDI
CDK1, sequence (P06493 whole entry, species assumed): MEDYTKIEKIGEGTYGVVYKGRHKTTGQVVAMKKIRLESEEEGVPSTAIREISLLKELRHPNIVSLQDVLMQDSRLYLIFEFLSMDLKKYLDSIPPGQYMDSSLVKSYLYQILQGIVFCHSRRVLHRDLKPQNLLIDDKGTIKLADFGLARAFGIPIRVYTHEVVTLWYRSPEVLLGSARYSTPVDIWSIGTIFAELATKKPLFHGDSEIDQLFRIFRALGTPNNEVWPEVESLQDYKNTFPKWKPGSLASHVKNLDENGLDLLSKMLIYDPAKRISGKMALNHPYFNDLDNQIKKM
CDK1, sequence (P14635 whole entry partner, species assumed): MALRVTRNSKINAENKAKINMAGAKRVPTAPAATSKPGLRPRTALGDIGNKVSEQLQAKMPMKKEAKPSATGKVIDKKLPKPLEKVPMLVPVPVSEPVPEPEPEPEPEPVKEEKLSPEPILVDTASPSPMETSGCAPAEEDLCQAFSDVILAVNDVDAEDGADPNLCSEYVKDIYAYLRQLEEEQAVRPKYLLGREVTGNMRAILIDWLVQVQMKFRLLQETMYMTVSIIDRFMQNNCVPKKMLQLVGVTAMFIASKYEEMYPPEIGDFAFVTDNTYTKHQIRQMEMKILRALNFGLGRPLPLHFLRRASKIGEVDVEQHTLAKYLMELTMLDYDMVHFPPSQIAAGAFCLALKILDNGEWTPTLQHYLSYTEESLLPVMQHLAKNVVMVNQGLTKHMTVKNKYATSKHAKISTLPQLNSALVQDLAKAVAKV

With `O=C1Nc2ccc3ncsc3c2/C1=C/Nc1ccc(S(=O)(=O)Nc2ccccn2)cc1` [GW-8510], in the experiment on CTGF gene expression, the “inhibition of TGFβ2-induced CTGF gene expression (mRNA levels)” value is listed as “inhibit” and the “inhibition of basal CTGF gene expression (mRNA levels)” value is recorded as “inhibit”. Besides, the IC50 on CDK1 is 110 nM. The IC50 at CDK4 is 130 nM. As for `CC(C)[C@H](CO)Nc1nc(Nc2cccc(Cl)c2)c2ncn(C(C)C)c2n1` [purvalanol A], the “inhibitory activity on CTGF expression” value in the experiment with CTGF gene expression is listed as “inhibitory activity”. `N#Cc1ccc2[nH]c3c(c2c1)CC(=O)Nc1ccccc1-3` [9-cyanopaullone]: in the experiment on CTGF gene expression, the “inhibition of basal CTGF gene expression (mRNA levels)” value was “inhibit basal”. `Cn1cc(C2=C(c3ccc(Cl)cc3Cl)C(=O)NC2=O)c2ccccc21` [SB-216763]: in the experiment on CTGF gene expression, the “inhibition of TGFβ2-induced CTGF gene expression (mRNA levels)” value is listed as “inhibit” and the “inhibition of basal CTGF gene expression (mRNA levels)” value is “inhibit”.

Consider `O=C1Cc2c([nH]c3ccc(Br)cc23)-c2ccccc2N1` [kenpaullone], for which, in the experiment on CTGF gene expression, the “inhibition of basal CTGF gene expression (mRNA levels)” value is reported as “inhibit basal”. Turning to `CCCCC[C@H](O)/C=C/C=C\C/C=C\C/C=C\CCCC(=O)O` [15(S)HETE], the “inhibition of basal CTGF gene expression (mRNA levels)” value in the experiment with CTGF gene expression is recorded as “inhibit basal”. On the same count and under the same terms, in the case of `O=C1Cc2c([nH]c3ccc([N+](=O)[O-])cc23)-c2ccccc2N1` [alsterpaullone] it was “inhibit basal”. Take `CC[C@H](CO)Nc1nc(NCc2ccccc2)c2ncn(C(C)C)c2n1` [roscovitine]: the “inhibitory activity on CTGF expression” value in the experiment on CTGF gene expression is recorded as “inhibitory activity”.

The term IC50 denotes the point on the concentration scale where inhibition reaches its midpoint.
